We go through one molecule from patent US8987217B2, “Modified saponins for the treatment of fungal infections” (The General Hospital Corporation, priority 2010, dated 2015).

The test system of one data set is sheep erythrocytes. Put plainly: hemolysis of sheep erythrocytes. The data set is classed as cell-based. The following applies: 100 μg/mL. The method, then:
The cytotoxicity for the identified compounds was confirmed as previously described (Breger et al., PLoS Pathog, 3:e18 (2007); Moy et al., Proc Natl Acad Sci USA, 103:10414-10419 (2006)). Hemolysis of sheep erythrocytes (Rockland Immunochemicals) was monitored on a spectrophotometer at A540 with the two natural products A16 and A19 (100 μg/mL) in 2% DMSO. Triton X-100 and DMSO were used as controls.

For a further data set, the system named is C. albicans. The data set can be described thus: C. elegans-C. albicans co-inoculation assay, nematode survival. The data set is classed as in vivo. The method, then: (§1) The procedure for the co-inoculation antifungal compound screen were conducted as previously described (Okoli et al., PLoS ONE, 4:e7025 (2009); Tampakakis et al., Nat Protocols, 3:1925-1931 (2008)), using the C. albicans strain DAY185 (Davis et al., Infect Immun, 68:5953-5959 (2000)) and the C. elegans glp-4;sek-1 double mutant.
(§2) This assay allows simultaneous assessment of a compound's potential toxicity and the ability to promote the survival of the nematode in the presence of C. albicans, including modes of action not traditionally considered in antifungal assays such as impeding a fungal virulence factor or promoting host immune response. We performed a screen of 2,560 natural products representing a fraction of the Analyiticon Discovery compound collection (ac-discovery.com) housed at the Broad Institute of Harvard and MIT (Cambridge, Mass.). […] These natural products identified in the primary screen were retested and confirmed (FIG. 1; Table 1). […] Moreover, although the antifungal effects of some of these saponins have been reported (Sata et al., Biosci Biotechnol Biochem, 62:1904-1911 (1998); Ohtani et al., Phytochem, 33:83-86 (1993)), their efficacy against Candida spp. has not been studied.
After confirmation of these hits, dose response experiments were conducted to determine the concentration that provided maximum nematode survival. The compounds conferred a range of nematode survival from 27% (compound A6) to 93% (compounds A2, A7, A24, and A25), however, with the exception of A6, all compounds conferred a nematode survival over 65% (FIG. 1).

For another data set, the system named is C. albicans strains. Put plainly: MIC by standard CLSI microdilution protocol M27-A. The data set is classed as cell-based. The method, then: Using the standard Clinical and Laboratory Standards Institute (CLSI) procedure, the in vitro MIC of these two compounds was determined on the following C. albicans strains: DAY185 (the standard strain used throughout the screen), two fluconazole-resistant strains of C. albicans, and an echinocandin-resistant strain of C. albicans (Table 2).
(§3) The minimal inhibitory concentration (MIC) was determined for strains DAY185, 98-145, 95-120 (White et al., Antimicrob Agents Chemother, 46:1704-1713 (2002)), and A15-10 (Garcia-Effron et al., Antimicrob Agents Chemother, 53:112-122 (2009)) spectrophotometrically using RPMI 1640 media (Mediatech, Inc.) following the standard CLSI microdilution protocol M27-A (National Committee for Clinical Laboratory Standards, Reference method for broth dilution susceptibility testing of yeasts. Tentative standard M27-A, Villanova, Pa. (1995)). Biofilm assays using identified compounds were conducted as previously described (Richard et al., Eukaryot Cell, 4:1493-1502 (2005)). The biofilm dry mass was determined by drying the silicone squares in a chemical hood, and weighing the resulting biofilm mass subtracting the previously weighed mass of the silicone square. Biofilm pictures were captured using a confocal laser microscope (TCS NT, Leica Microsystems). Cells were grown at 30° C., exposed to PS for 30 min, and then washed with PBS.
For orientation: Broth dilution looks for growth in wells or tubes with falling amounts of substance.

Another data set deals with C. elegans. Put plainly: toxicity to the nematode in dose response experiments. The following applies: dose response experiments, higher concentrations.
Text: as §2
Representatives of the saponins family are able to disrupt cellular membranes and the lytic activity on erythrocytes has been used as an assay for some saponins Francis et al., British Journal of Nutrition, 88:587-605 (2002)). This property is derived from the affinity of some saponins for binding cholesterol forming insoluble pores composed of the sterol and saponins (Bangham et al., Nature, 196:952-953(1962); Glauert et al., Nature, 196:953-955 (1962)). […] The dose-response experiments previously used to determine the EC50 and approximate the MIC can also indicate if the saponins maybe toxic to C. elegans and potentially to mammalian cells.

The test system of data set [1] is C. albicans strain DAY185. The data set can be described thus: in vitro antifungal activity (MIC) in the co-inoculation assay, turbidity read visually. The data set is classed as cell-based. The method, then:
as §1
The determination of the lowest concentration of the selected compounds showing in vitro antifungal activity was accomplished by following the steps detailed in the co-inoculation assay, using two-fold serial dilutions of the test compounds.

A further data set deals with C. albicans biofilm. The data set can be described thus: biofilm formation on silicone pads (dry mass). The following applies: 20 μg/mL (below the MIC), compared with caspofungin. The data set is classed as cell-based. The method, then: as §3, with “Biofilm pictures were captured using a confocal laser microscope (TCS NT, Leica Microsystems). Cells were grown at 30° C., exposed to PS for 30 min, and then washed with PBS.” left out
Caspofungin (Merck) served as a known antifungal compound control. In vitro hyphal inhibition was assessed by incubation of DAY185 in RPMI 1640 media at 37° C. […] The ability of the antifungal compound A16, at either 2 or 4 μg/mL, to induce osmotic stress was assessed using DAY185 grown in a 96 well microtiter plate containing RPMI 1640 media and NaCl, ranging in concentrations from 0-2 M in 0.25 M increments. The growth of the fungus was measured spectrophotometrically after 48 hours of growth at 35° C.

Converted amounts (≈) assume the structure as drawn.

Take `C/C=C(/C)C(=O)O[C@H]1CC(C)(C)C[C@H]2C3=CCC4[C@@]5(C)CC[C@H](O[C@@H]6O[C@H](C(=O)O)[C@@H](O[C@@H]7O[C@H](CO)[C@H](O)[C@H](O)[C@H]7O[C@@H]7O[C@H](CO)[C@@H](O)[C@H](O)[C@H]7O)[C@H](O)[C@H]6OC6O[C@@H](C)[C@H](O)[C@@H](O)[C@H]6O)C(C)(C)C5CC[C@@]4(C)[C@]3(C)C[C@@H](O)[C@@]12CO` (some centres unmarked) [A19]: in the data set on sheep erythrocytes, the hemolytic activity entry is recorded as “no hemolytic activity”. The same molecule displayed a maximum nematode survival in the data set on C. albicans (dose response, C. albicans-infected C. elegans) of 80%. Moreover, the EC50 in vivo with C. albicans (dose that resulted in 50% survival of C. albicans-infected nematodes) is 26.5 µg/mL (≈ 22 µM). For the same molecule, the MIC is 32 µg/mL (≈ 26.6 µM) against C. albicans strains (C. albicans DAY185), 16 µg/mL (≈ 13.3 µM) in the data set on C. albicans strains (echinocandin-resistant strain A15), 32 µg/mL (≈ 26.6 µM) in the data set with C. albicans strains (fluconazole-resistant strain 95-120) and 32 µg/mL (≈ 26.6 µM) in the data set with C. albicans strains (fluconazole-resistant strain 98-145). The “toxicity to the nematode” value in the data set with C. elegans is “none of the concentrations used in the dose response experiment showed signs of toxicity”. This molecule also had an MIC in vitro in data set [1] (co-inoculation assay, two-fold serial dilutions, C. albicans DAY185) of 26.5 µg/mL (≈ 22 µM). In addition, the “in vitro growth of C. albicans” value in data set [1] (screen / dose response) is given as “completely inhibited”. Further, the biofilm formation result with C. albicans biofilm was “able to inhibit biofilm formation”.

What is called MIC is the smallest concentration in the dilution series that meets the test's criterion for growth inhibition. A higher MIC goes with a less susceptible organism.
